Assays:
ROCK2 = ROCK2 (Homo sapiens (Human), UniProt O75116); assay: Z-lyte FRET assay to measure kinase inhibition, ROCK2; format: biochemical
ROCK1 = ROCK1 (Homo sapiens (Human), UniProt Q13464); assay: Z-lyte FRET assay to measure kinase inhibition, ROCK1; format: biochemical; conditions: for inhibition at 50 µM: read-out: ROCK1 % inhibition @ 50 μM, 50 μM compound; for IC50: read-out: ROCK1 IC50; for inhibition at 100 µM: read-out: ROCK1 % inhibition @ 100 μM, 100 μM compound
Chain of ROCK1 (Q13464 whole entry): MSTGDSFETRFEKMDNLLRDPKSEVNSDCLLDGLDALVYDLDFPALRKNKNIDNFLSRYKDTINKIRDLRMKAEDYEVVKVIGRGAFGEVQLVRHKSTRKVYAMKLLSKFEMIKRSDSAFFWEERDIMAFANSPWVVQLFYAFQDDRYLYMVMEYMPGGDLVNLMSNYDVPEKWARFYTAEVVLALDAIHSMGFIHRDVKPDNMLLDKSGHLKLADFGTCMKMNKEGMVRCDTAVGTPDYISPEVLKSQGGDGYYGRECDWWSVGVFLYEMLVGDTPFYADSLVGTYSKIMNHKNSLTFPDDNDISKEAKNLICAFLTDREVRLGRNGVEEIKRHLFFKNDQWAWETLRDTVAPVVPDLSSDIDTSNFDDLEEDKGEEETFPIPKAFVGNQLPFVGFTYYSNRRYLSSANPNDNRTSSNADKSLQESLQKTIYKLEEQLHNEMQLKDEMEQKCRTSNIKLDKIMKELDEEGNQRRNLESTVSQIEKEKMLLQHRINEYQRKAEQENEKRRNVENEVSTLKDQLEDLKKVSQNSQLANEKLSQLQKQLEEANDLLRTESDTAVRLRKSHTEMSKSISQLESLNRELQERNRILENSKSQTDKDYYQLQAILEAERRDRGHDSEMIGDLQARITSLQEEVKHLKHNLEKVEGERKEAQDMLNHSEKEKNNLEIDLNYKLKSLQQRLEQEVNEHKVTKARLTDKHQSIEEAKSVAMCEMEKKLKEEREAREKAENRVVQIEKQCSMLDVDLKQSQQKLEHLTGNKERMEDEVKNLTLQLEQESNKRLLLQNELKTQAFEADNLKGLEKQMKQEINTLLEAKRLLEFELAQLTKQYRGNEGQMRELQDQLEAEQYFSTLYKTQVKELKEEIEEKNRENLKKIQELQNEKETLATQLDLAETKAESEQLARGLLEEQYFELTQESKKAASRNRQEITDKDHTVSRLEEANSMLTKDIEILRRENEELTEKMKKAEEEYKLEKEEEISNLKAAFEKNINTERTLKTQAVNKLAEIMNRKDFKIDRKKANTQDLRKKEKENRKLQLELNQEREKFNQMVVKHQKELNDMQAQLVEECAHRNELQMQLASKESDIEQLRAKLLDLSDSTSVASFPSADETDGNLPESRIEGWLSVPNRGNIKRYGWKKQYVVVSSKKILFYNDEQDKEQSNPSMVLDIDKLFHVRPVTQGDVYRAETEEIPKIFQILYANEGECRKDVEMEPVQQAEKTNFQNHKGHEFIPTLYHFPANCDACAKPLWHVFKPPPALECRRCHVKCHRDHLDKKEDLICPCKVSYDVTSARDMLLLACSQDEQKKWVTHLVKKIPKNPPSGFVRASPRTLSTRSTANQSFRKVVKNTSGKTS

Chain of ROCK2 (O75116 whole entry, species assumed): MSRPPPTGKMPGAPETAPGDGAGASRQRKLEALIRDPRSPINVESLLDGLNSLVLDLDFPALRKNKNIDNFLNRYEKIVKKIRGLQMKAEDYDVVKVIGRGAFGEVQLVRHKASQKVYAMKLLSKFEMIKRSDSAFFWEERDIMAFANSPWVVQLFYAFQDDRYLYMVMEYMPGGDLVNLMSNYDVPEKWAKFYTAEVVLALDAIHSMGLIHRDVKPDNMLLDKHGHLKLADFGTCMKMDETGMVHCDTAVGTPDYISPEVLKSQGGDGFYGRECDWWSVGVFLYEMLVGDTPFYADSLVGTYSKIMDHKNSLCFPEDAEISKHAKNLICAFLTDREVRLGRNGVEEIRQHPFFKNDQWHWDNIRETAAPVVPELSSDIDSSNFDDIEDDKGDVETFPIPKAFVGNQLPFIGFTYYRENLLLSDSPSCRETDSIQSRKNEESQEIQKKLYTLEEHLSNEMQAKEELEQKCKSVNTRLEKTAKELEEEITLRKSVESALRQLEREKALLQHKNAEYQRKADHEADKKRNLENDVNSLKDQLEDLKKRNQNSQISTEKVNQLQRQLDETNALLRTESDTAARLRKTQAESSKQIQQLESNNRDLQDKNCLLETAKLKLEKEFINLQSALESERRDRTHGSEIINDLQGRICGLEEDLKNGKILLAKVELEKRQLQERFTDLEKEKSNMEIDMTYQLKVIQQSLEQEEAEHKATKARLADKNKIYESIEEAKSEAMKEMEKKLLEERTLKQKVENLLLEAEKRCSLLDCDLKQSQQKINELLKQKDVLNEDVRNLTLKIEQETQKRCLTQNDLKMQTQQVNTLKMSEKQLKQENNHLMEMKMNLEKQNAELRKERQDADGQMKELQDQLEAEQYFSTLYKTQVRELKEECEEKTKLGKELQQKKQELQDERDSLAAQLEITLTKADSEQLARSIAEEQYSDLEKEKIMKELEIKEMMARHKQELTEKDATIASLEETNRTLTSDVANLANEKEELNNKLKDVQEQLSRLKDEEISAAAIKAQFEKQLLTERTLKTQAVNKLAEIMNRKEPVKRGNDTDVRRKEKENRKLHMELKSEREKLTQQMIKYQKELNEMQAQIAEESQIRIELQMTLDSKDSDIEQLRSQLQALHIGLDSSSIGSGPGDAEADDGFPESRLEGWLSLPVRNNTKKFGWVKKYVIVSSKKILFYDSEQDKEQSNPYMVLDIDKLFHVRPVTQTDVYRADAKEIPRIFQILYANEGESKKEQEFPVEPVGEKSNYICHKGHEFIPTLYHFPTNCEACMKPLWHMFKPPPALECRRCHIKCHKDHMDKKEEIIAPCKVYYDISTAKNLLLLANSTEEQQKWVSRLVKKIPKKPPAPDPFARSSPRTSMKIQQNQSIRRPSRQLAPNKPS

Row | SMILES | IC50 (ROCK2) [nM] | inhibition at 50 µM (ROCK1) [%] | IC50 (ROCK1) [nM] | inhibition at 100 µM (ROCK1) [%] | ROCK1 % inhibition @ 50 μM (ROCK1; 50 μM compound) [%]
1 | CC1Cc2cc(Cl)ccc2N1c1ccnc(N)n1 (centres unmarked) | 500 ± 30 | 87 ± 10 | 1200 ± 100 |  | 
2 | CS(=O)(=O)Nc1cccc(CNC(=O)c2cccc3c2ccn3-c2ccnc(N)n2)c1 |  |  | 3260 ± 570 | 100 | 
3 | Nc1nccc(N2CCc3cc(Cl)ccc32)n1 | 1200 ± 200 | 73 ± 3 | 1500 ± 200 |  | 
4 | Nc1nccc(-n2ccc3cc(C(=O)NCCc4ccccc4)ccc32)n1 | 700 ± 300 | 96 ± 1 | 2800 ± 300 |  | 
5 | Nc1nccc(-n2ccc3c(OCc4cccc(Cl)c4F)cccc32)n1 |  | 10 ± 2 |  |  | 
6 | Nc1nccc(N2c3ccccc3CC2C(=O)O)n1 (centres unmarked) |  | 6 ± 0.4 |  |  | 
7 | CC(=O)N(C)c1cccc(CNC(=O)c2cccc3c2ccn3-c2ccnc(N)n2)c1 |  |  | 40300 ± 11000 | 47 | 
8 | CCc1ccc(Nc2ccnc(N)n2)cc1 |  | 36 ± 6 |  |  | 
9 | NC(=O)c1ccc(Oc2ccnc(N)n2)cc1 |  | 2 ± 1 |  |  | 
10 | CC1Cc2ccccc2N1c1ccnc(N)n1 (centres unmarked) | 1900 ± 400 | 97 ± 1 | 1700 ± 200 |  | 
11 | CC(=O)Nc1cccc(Nc2ccnc(N)n2)c1 |  | 42 ± 6 |  |  | 
12 | Nc1nccc(Nc2ccc(S(=O)(=O)Nc3ccccn3)cc2)n1 |  | 2.8 ± 2.3 |  |  | 
13 | Nc1nccc(Nc2ccccc2OCc2ccccc2)n1 |  | 22 ± 4 |  |  | 
14 | Cc1ccc2c(ccn2-c2ccnc(N)n2)c1 | 7100 ± 2100 | 82 ± 5 | 8300 ± 900 |  | 
15 | Nc1nccc(-n2ccc3cc(NC(=O)CCc4ccccc4)ccc32)n1 | 8400 ± 2000 | 60 ± 2 | 54100 ± 1100 |  | 
16 | Nc1nccc(-n2ccc3c(OCCc4ccccc4)cccc32)n1 | 17000 ± 1700 | 63 ± 5 | 53600 ± 4100 |  | 
17 | Nc1nccc(Nc2ccccc2Cl)n1 |  |  |  | 39 | 
18 | Nc1nccc(-n2ccc3cc(NC(=O)c4ccccc4)ccc32)n1 |  | 8 ± 3 |  |  | 
19 | Nc1nccc(-n2ccc3c(OCc4ccc(Cl)cc4)cccc32)n1 | 460 ± 80 | 71 ± 2 | 1900 ± 420 |  | 
20 | COc1cccc(CNC(=O)c2cccc3c2ccn3-c2ccnc(N)n2)c1 | 40 ± 30 | 93 ± 7 | 150 ± 20 |  | 
21 | Nc1nccc(-n2ccc3c(C(=O)NCc4ccc(F)cc4)cccc32)n1 | 1100 ± 490 | 70 ± 3 | 10500 ± 1000 |  | 
22 | Nc1nccc(N2CCc3ccccc3C2)n1 |  | 6 ± 1 |  |  | 
23 | Nc1nccc(Nc2ccc(S(=O)(=O)NCc3ccccc3)cc2)n1 |  | 30 ± 1 |  |  | 

Row | SMILES | IC50 (ROCK2) [nM] | inhibition at 50 µM (ROCK1) [%] | IC50 (ROCK1) [nM] | inhibition at 100 µM (ROCK1) [%] | ROCK1 % inhibition @ 50 μM (ROCK1; 50 μM compound) [%]
24 | Nc1nccc(-n2ccc3c(C(=O)NCc4cccc(Cl)c4)cccc32)n1 | 720 ± 130 | 86 ± 4 | 6800 ± 3000 |  | 
25 | CS(=O)(=O)c1cccc(Nc2ccnc(N)n2)c1 | 7300 ± 2000 | 90 ± 1 | 6700 ± 1300 |  | 
26 | Nc1nccc(Nc2ccccc2)n1 | > 50000 | 47 ± 6 | 55300 ± 13400 |  | 
27 | Nc1nccc(-n2ccc3c(C(=O)NCc4ccc(Cl)cc4)cccc32)n1 |  | 31 ± 10 |  |  | 
28 | Nc1nccc(-n2ccc3cc(C(=O)Nc4ccccc4)ccc32)n1 |  | 17 ± 2 |  |  | 
29 | Nc1nccc(-n2ccc3cc(C(=O)NCc4ccccc4)ccc32)n1 | 300 ± 100 | 96 ± 1 | 2400 ± 1600 |  | 
30 | Nc1nccc(-n2ccc3c(OCc4ccccc4Cl)cccc32)n1 | 19000 ± 5900 | 62 ± 6 | 29100 ± 8200 |  | 
31 | Nc1nccc(Nc2ccc(S(=O)(=O)Nc3ccnn3-c3ccccc3)cc2)n1 |  | 1.8 ± 0.8 |  |  | 
32 | NS(=O)(=O)c1ccc(Nc2ncnc3nc[nH]c23)cc1 |  | 54 ± 4 | 42700 ± 900 |  | 
33 | Nc1nccc(-n2ccc3ccc(Cl)cc32)n1 | 1000 ± 300 | 88 ± 0.3 | 1200 ± 200 |  | 
34 | CC(=O)N1CCc2ccc(Nc3ccnc(N)n3)cc21 |  | 10 ± 12 |  |  | 
35 | Nc1nccc(-n2ccc3ccc(F)cc32)n1 | 1700 ± 100 | 86 ± 5 | 4900 ± 500 |  | 
36 | Cc1cc(Nc2cccc(S(N)(=O)=O)c2)nc(N)n1 |  | 0.8 ± 1.2 |  |  | 
37 | Nc1nccc(N2CCc3ccc(F)cc32)n1 | 1340 ± 90 | 89 ± 4 | 3700 ± 400 |  | 
38 | CC(NC(=O)c1cccc2c1ccn2-c1ccnc(N)n1)c1ccccc1 (centres unmarked) [drawing 178] | 60 ± 20 |  | 120 ± 20 |  | 105 ± 1
39 | Nc1nccc(Nc2ccc(S(=O)(=O)N3CCN(c4cccc(C(F)(F)F)c4)CC3)cc2)n1 |  | -0.3 ± 0.7 |  |  | 
40 | COc1cccc(CNS(=O)(=O)c2cccc(Nc3ccnc(N)n3)c2)c1 |  |  | 33400 ± 8520 | 70 | 
41 | Nc1nccc(-n2ccc3ccccc32)n1 | 4000 ± 300 | 88 ± 4 | 4800 ± 300 |  | 
42 | Nc1nccc(N2CCc3c(OCc4ccccc4)cccc32)n1 | 250 ± 70 | 90 ± 1 | 480 ± 99 |  | 
43 | CCOc1cccc(CNC(=O)c2cccc3c2ccn3-c2ccnc(N)n2)c1 |  |  | 3370 ± 530 | 61 | 
44 | C[C@H](NC(=O)c1cccc2c1ccn2-c1ccnc(N)n1)c1ccccc1 | 1200 ± 320 | 102.2 ± 0.2 | 3430 ± 440 |  | 
45 | COC[C@H](NC(=O)c1cccc2c1ccn2-c1ccnc(N)n1)c1ccccc1 |  |  | 15400 ± 6040 | 91 | 

— patent publication US9616064B2, “Rho kinase inhibitors and methods of use” (H. LEE MOFFITT CANCER CENTER AND RESEARCH INSTITUTE, INC., priority 2011, dated 2017)
